A word on the pIC50: it is −log10 of the IC50, conventionally taken in molar units. Read a high pIC50 as a small IC50.

For this test, the target named is T1, acetylcholinesterase (AChE) (Homo sapiens, UniProt P22303).
T1 construct: amphiphilic form from human erythrocytes
The experiment in a line: colorimetric AChE assay with MATP+ substrate. It is filed as biochemical.

Each structure is given as a SMILES string. pIC50: −log10 of the molar value.

T1 sequence (P22303 other isoform, or with tags, fused parts or gaps): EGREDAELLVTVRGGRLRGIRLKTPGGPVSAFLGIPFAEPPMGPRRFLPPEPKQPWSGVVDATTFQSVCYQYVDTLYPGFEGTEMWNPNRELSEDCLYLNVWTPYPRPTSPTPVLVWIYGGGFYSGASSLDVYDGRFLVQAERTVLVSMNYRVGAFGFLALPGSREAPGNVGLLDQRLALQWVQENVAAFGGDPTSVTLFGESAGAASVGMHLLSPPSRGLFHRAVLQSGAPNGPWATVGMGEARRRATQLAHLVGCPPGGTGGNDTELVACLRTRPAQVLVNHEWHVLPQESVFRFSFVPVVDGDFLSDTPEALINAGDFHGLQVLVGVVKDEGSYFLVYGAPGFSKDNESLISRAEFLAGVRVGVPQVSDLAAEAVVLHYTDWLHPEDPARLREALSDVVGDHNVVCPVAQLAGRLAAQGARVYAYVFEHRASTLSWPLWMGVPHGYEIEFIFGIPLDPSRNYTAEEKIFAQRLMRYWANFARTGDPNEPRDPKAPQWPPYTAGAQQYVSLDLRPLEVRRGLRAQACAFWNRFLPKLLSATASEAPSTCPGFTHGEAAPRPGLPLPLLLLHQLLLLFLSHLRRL

`O=C1NC(Cc2ccccc2)C(=O)NC1Cc1ccccc1` [cyclo(L-Phe-L-Phe)] had a pIC50 of about 5.47.
Consider `O=C1[C@@H]2CCCN2C(=O)[C@@H]2CCCN12` [cyclo(L-Pro-L-Pro)], for which the pIC50 was 3.80.

The values above are taken from publication PMC3509069, “A DKP Cyclo(L-Phe-L-Phe) Found in Chicken Essence Is a Dual Inhibitor of the Serotonin Transporter and Acetylcholinesterase” (PLoS ONE, 2012).
